Data published in publication PMC9282233 (Proceedings of the National Academy of Sciences of the …, 2022).

Molecular target: Tsr (E. coli serine chemoreceptor) (Escherichia coli, UniProt P02942)
Test: in vivo FRET kinase assay
Type: cell-based

Chain of Tsr (E. coli serine chemoreceptor) (P02942 whole entry): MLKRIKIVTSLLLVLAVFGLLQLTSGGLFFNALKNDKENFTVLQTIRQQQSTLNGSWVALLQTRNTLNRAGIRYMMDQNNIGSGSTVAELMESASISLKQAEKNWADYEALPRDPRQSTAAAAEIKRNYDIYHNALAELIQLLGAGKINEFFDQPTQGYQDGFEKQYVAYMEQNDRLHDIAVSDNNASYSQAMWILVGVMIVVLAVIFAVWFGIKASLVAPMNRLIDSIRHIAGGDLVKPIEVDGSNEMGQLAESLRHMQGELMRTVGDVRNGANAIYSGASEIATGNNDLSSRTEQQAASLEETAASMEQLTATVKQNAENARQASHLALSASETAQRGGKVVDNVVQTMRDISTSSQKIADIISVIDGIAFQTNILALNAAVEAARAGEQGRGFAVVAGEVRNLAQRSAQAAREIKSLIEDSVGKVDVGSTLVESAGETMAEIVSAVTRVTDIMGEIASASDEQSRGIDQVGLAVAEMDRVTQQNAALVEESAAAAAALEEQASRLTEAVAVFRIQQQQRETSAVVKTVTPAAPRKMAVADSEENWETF

IC50: 18 µM
SMILES: N[C@@H](CO)C(=O)O [serine]
